Assay results from patent publication US8906848B2, “Aureobasidin derivatives and methods of synthesis” (priority 2011, dated 2014).
Values after ≈ are worked out from the molar mass of the structure shown. Where two headings read alike, the source gives them in different places.

Tests used:
[1] = system: Aspergillus fumigatus 5280 (ATCC MYA-3626); conditions: at 48 hrs; cited from earlier work
[2] = system: Candida krusei 629 (ATCC14243); assay: MIC, antifungal spectrum (Table 3); format: cell-based; conditions: Pichia kudriavzevii
Description: (§1) The activities of several exemplary compounds of the present invention were assayed according to the CLSI standard M38-A2 titled “Reference Method for Broth Dilution Antifungal Susceptibility Testing of Filamentous Fungi”. However, the RPMI-1640 broth is substituted for a YPD medium formulated according to the following steps: […]
(§2) 1. Dissolve 10 g of BactoYeast extract in 500 ml water
(§3) 2. Dissolve 20 g of BactoPeptone in the above solution
(§4) 3. Dissolve 20 g Dextrose in the above solution* *Ordinary table sugar (sucrose) substituted for dextrose routinely.
(§5) 4. q.s. to 1000 ml with water

[3] = system: Fusarium oxysporum 0893 (ATCC48112); assay: MIC, antifungal spectrum (Table 3); format: cell-based; conditions: at 96 hr, read-out: MIC
Description: as §1, §2, §3, §4, §5

[4] = system: Rhizopus oryzae 0890 (ATCC11886); assay: MIC, antifungal spectrum (Table 3); format: cell-based; conditions: Rhizopus arrhizus
Description: as §1, §2, §3, §4, §5

[5] = system: Candida albicans 2487 (ATCC MYA-2732); assay: MIC, antifungal spectrum (Table 3); format: cell-based
Description: as §1, §2, §3, §4, §5

[6] = system: Sporothrix schenkii 892 (ATCC14284); assay: MIC, antifungal spectrum (Table 3); format: cell-based; conditions: at 96 hrs, read-out: MIC
Description: as §1, §2, §3, §4, §5

[7] = system: Emericella nidulans 637 (ATCC96921); assay: MIC, antifungal spectrum (Table 3); format: cell-based; conditions: Aspergillus nidulans
Description: as §1, §2, §3, §4, §5

[8] = system: Aspergillus clavatus 638 (ATCC10058); assay: MIC, antifungal spectrum (Table 3); format: cell-based
Description: as §1, §2, §3, §4, §5

[9] = system: Aspergillus fumigatus 891 (ATCC204305); assay: MIC, antifungal spectrum (Table 3); format: cell-based
Description: as §1, §2, §3, §4, §5

[10] = system: Aspergillus flavus 626 (ATCC64025); assay: MIC, antifungal spectrum (Table 3); format: cell-based
Description: as §1, §2, §3, §4, §5

[11] = system: Candida albicans 104 (ATCC90028); assay: MIC, antifungal spectrum (Table 3); format: cell-based
Description: as §1, §2, §3, §4, §5

[12] = system: Candida glabrata 635 (ATCC90030); assay: MIC, antifungal spectrum (Table 3); format: cell-based; conditions: Nakaseomyces glabratus
Description: as §1, §2, §3, §4, §5

[13] = system: Aspergillus flavus 4787 (ATCC204304); assay: MIC, antifungal spectrum (Table 3); format: cell-based
Description: as §1, §2, §3, §4, §5

[14] = system: Trychophyton mentagrophytes 5278 (ATCC MYA-4439); assay: MIC, antifungal spectrum (Table 3); format: cell-based; conditions: at 96 hrs, read-out: MIC
Description: as §1, §2, §3, §4, §5

[15] = system: Candida albicans 633 (ATCC90029); assay: MIC, antifungal spectrum (Table 3); format: cell-based
Description: as §1, §2, §3, §4, §5

[16] = system: Candida lusitaniae 631 (ATCC66035); assay: MIC, antifungal spectrum (Table 3); format: cell-based; conditions: Clavispora lusitaniae
Description: as §1, §2, §3, §4, §5

[17] = system: Aspergillus candidus 450 (ATCC13686); assay: MIC, antifungal spectrum (Table 3); format: cell-based
Description: as §1, §2, §3, §4, §5

[18] = system: Candida tropicalis 636 (ATCC90874); assay: MIC, antifungal spectrum (Table 3); format: cell-based
Description: as §1, §2, §3, §4, §5

[19] = system: Issatchenkia orientalis 2322 (ATCC6258); assay: MIC, antifungal spectrum (Table 3); format: cell-based; conditions: Pichia kudriavzevii
Description: as §1, §2, §3, §4, §5

[20] = system: Candida tropicalis 4783 (ATCC750); assay: MIC, antifungal spectrum (Table 3); format: cell-based
Description: as §1, §2, §3, §4, §5

[21] = system: Aspergillus niger 624 (ATCC16888); assay: MIC, antifungal spectrum (Table 3); format: cell-based
Description: as §1, §2, §3, §4, §5

[22] = system: Candida albicans 2486 (ATCC204276); assay: MIC, antifungal spectrum (Table 3); format: cell-based
Description: as §1, §2, §3, §4, §5

[23] = system: Aspergillus fumigatus 5280 (ATCC MYA-3626); assay: MIC, antifungal spectrum (Table 3); format: cell-based
Description: as §1, §2, §3, §4, §5

[24] = system: Candida albicans 2000 (ATCC10231); assay: MIC, antifungal spectrum (Table 3); format: cell-based
Description: as §1, §2, §3, §4, §5

[25] = system: Trychophyton rubrum 5279 (ATCC MYA-4438); assay: MIC, antifungal spectrum (Table 3); format: cell-based; conditions: at 72 hrs, read-out: MIC
Description: as §1, §2, §3, §4, §5

[26] = system: Candida albicans 4782 (ATCC24433); assay: MIC, antifungal spectrum (Table 3); format: cell-based
Description: as §1, §2, §3, §4, §5

[27] = system: Candida guilliermondii 628 (ATCC34134); assay: MIC, antifungal spectrum (Table 3); format: cell-based; conditions: Meyerozyma guilliermondii
Description: as §1, §2, §3, §4, §5

[28] = system: Saccharomyces cerevisiae 0639 (ATCC7754); assay: MIC, antifungal spectrum (Table 3); format: cell-based
Description: as §1, §2, §3, §4, §5

[29] = system: Candida parapsilosis 2323 (ATCC22019); assay: MIC, antifungal spectrum (Table 3); format: cell-based; conditions: Lodderomyces parapsilosis
Description: as §1, §2, §3, §4, §5

[30] = system: Aspergillus flavus 122 (ATCC22546); assay: MIC, antifungal spectrum (Table 3); format: cell-based
Description: as §1, §2, §3, §4, §5

[31] = system: Candida parapsilosis 0630 (ATCC90018); assay: MIC, antifungal spectrum (Table 3); format: cell-based; conditions: Lodderomyces parapsilosis
Description: as §1, §2, §3, §4, §5

[32] = system: Trychophyton mentagrophytes 640 (ATCC 28185); assay: MIC, antifungal spectrum (Table 3); format: cell-based
Description: as §1, §2, §3, §4, §5

[33] = system: Aspergillus ochraceus 625 (ATCC96919); assay: MIC, antifungal spectrum (Table 3); format: cell-based
Description: as §1, §2, §3, §4, §5

[34] = system: Candida parapsilosis 2323 (ATCC22019); conditions: cited from earlier work

MIC ([2]; 48 hr reading): 0.125 µg/mL (≈ 0.135 µM) | MIC ([2]; 72 hr reading): 0.125 µg/mL (≈ 0.135 µM) | MIC [3]: 1 µg/mL (≈ 1.08 µM) | MIC ([4]; 48 hr reading): 0.03 µg/mL (≈ 0.0325 µM) | MIC ([4]; 72 hr reading): 0.03 µg/mL (≈ 0.0325 µM) | MIC ([5]; 48 hr reading): 0.06 µg/mL (≈ 0.0649 µM) | MIC ([5]; 72 hr reading): 0.06 µg/mL (≈ 0.0649 µM) | MIC [6]: 0.5 µg/mL (≈ 0.541 µM) | MIC ([7]; 48 hr reading): 1 µg/mL (≈ 1.08 µM) | MIC ([7]; 72 hr reading): 2 µg/mL (≈ 2.16 µM) | MIC ([8]; 48 hr reading): ≤ 0.004 µg/mL | MIC ([8]; 72 hr reading): 0.015 µg/mL (≈ 0.0162 µM) | MIC ([9]; 48 hr reading): 0.25 µg/mL (≈ 0.271 µM) | MIC ([9]; 72 hr reading): 1 µg/mL (≈ 1.08 µM) | MIC ([10]; 48 hr reading): 0.5 µg/mL (≈ 0.541 µM) | MIC ([10]; 72 hr reading): 0.5 µg/mL (≈ 0.541 µM) | MIC ([11]; 48 hr reading): 0.3 µg/mL (≈ 0.325 µM) | MIC ([11]; 72 hr reading): 0.6 µg/mL (≈ 0.649 µM) | MIC ([12]; 48 hr reading): 0.03 µg/mL (≈ 0.0325 µM) | MIC ([12]; 72 hr reading): 0.125 µg/mL (≈ 0.135 µM) | MIC ([13]; 48 hr reading): 0.25 µg/mL (≈ 0.271 µM) | MIC ([13]; 72 hr reading): 0.25 µg/mL (≈ 0.271 µM) | MIC [14]: 0.06 µg/mL (≈ 0.0649 µM) | MIC ([15]; 48 hr reading): 0.3 µg/mL (≈ 0.325 µM) | MIC ([15]; 72 hr reading): 0.6 µg/mL (≈ 0.649 µM) | MIC ([16]; 48 hr reading): 0.015 µg/mL (≈ 0.0162 µM) | MIC ([16]; 72 hr reading): 0.03 µg/mL (≈ 0.0325 µM) | MIC ([17]; 48 hr reading): 0.03 µg/mL (≈ 0.0325 µM) | MIC ([17]; 72 hr reading): 0.06 µg/mL (≈ 0.0649 µM) | MIC ([18]; 48 hr reading): 0.06 µg/mL (≈ 0.0649 µM) | MIC ([18]; 72 hr reading): 0.125 µg/mL (≈ 0.135 µM) | MIC ([19]; 48 hr reading): 0.125 µg/mL (≈ 0.135 µM) | MIC ([19]; 72 hr reading): 0.125 µg/mL (≈ 0.135 µM) | MIC ([20]; 48 hr reading): 0.06 µg/mL (≈ 0.0649 µM) | MIC ([20]; 72 hr reading): 0.125 µg/mL (≈ 0.135 µM) | MIC ([21]; 48 hr reading): 0.03 µg/mL (≈ 0.0325 µM) | MIC ([21]; 72 hr reading): 0.125 µg/mL (≈ 0.135 µM) | MIC ([22]; 48 hr reading): 0.06 µg/mL (≈ 0.0649 µM) | MIC ([22]; 72 hr reading): 0.06 µg/mL (≈ 0.0649 µM) | MIC ([23]; 48 h, Aspergillus fumigatus 5280 (ATCC MYA-3626) no Tween, 48 hr reading): 1 µg/mL (≈ 1.08 µM) | MIC ([23]; 48 h, Aspergillus fumigatus 5280 (ATCC MYA-3626), 48 hr reading): 0.25 µg/mL (≈ 0.271 µM) | MIC ([23]; 72 h, Aspergillus fumigatus 5280 (ATCC MYA-3626) no Tween, 72 hr reading): 2 µg/mL (≈ 2.16 µM) | MIC ([23]; 72 h, Aspergillus fumigatus 5280 (ATCC MYA-3626), 72 hr reading): 0.5 µg/mL (≈ 0.541 µM) | MIC ([24]; 48 hr reading): 0.3 µg/mL (≈ 0.325 µM) | MIC ([24]; 72 hr reading): 0.6 µg/mL (≈ 0.649 µM) | MIC [25]: 0.03 µg/mL (≈ 0.0325 µM) | MIC ([26]; 48 hr reading): 0.3 µg/mL (≈ 0.325 µM) | MIC ([26]; 72 hr reading): 0.6 µg/mL (≈ 0.649 µM) | MIC ([27]; 48 hr reading): 0.008 µg/mL (≈ 0.00866 µM) | MIC ([27]; 72 hr reading): 0.015 µg/mL (≈ 0.0162 µM) | MIC ([28]; 48 hr reading): 0.06 µg/mL (≈ 0.0649 µM) | MIC ([28]; 72 hr reading): 0.06 µg/mL (≈ 0.0649 µM) | MIC ([29]; ATCC22019, 48 h, Candida parapsilosis 2323 (ATCC22019) no Tween, 48 hr reading): 0.25 µg/mL (≈ 0.271 µM) | MIC ([29]; ATCC22019, 48 h, Candida parapsilosis 2323 (ATCC22019), 48 hr reading): 0.125 µg/mL (≈ 0.135 µM) | MIC ([29]; ATCC22019, 72 h, Candida parapsilosis 2323 (ATCC22019) no Tween, 72 hr reading): 1 µg/mL (≈ 1.08 µM) | MIC ([29]; ATCC22019, 72 h, Candida parapsilosis 2323 (ATCC22019), 72 hr reading): 0.125 µg/mL (≈ 0.135 µM) | MIC ([30]; 48 hr reading): 0.25 µg/mL (≈ 0.271 µM) | MIC ([30]; 72 hr reading): 0.25 µg/mL (≈ 0.271 µM) | MIC ([31]; 48 hr reading): 0.06 µg/mL (≈ 0.0649 µM) | MIC ([31]; 72 hr reading): 0.125 µg/mL (≈ 0.135 µM) | MIC ([32]; 48 hr reading): 0.06 µg/mL (≈ 0.0649 µM) | MIC ([32]; 72 hr reading): 0.25 µg/mL (≈ 0.271 µM) | MIC ([33]; 48 hr reading): 0.25 µg/mL (≈ 0.271 µM) | MIC ([33]; 72 hr reading): 0.5 µg/mL (≈ 0.541 µM)
Structure (SMILES): C[C@@H]1[C@H](O)[C@@H](C)/C=C/C=C/C=C/C=C/C=C/C=C/C=C/[C@H](O[C@@H]2O[C@H](C)[C@@H](O)[C@H](N)[C@@H]2O)C[C@@H]2O[C@](O)(C[C@@H](O)C[C@@H](O)[C@H](O)CC[C@@H](O)C[C@@H](O)CC(=O)O[C@H]1C)C[C@H](O)[C@H]2C(=O)O [Amphotericin, Amphotericin B]
Amphotericin B CLSI QC Range for A. Fumigatus ATCC MYA-3626 [1]: 0.5-4 at 48 hrs μg/ml | Amphotericin B CLSI QC Range for C. parapsilosis ([34]; 24 hrs): 0.25-2 (24 hrs) μg/ml | Amphotericin B CLSI QC Range for C. parapsilosis ([34]; 48 hrs): 0.5-4 (48 hrs) μg/ml
